Measurements: article PMC10117725, “From an Hsp90 - binding protein to a peptide drug” (microLife, 2022)
Where no end group is shown, it is not given here.

Assays:
Hsp90α = biological target: T1, Hsp90α (Homo sapiens, UniProt P07900); type: binding; settings: dot blot, 2 µg blotted on membrane, 20 µg recombinant Hsp90α at 4°C overnight, α-Hsp90α immunodetection
T1 construct: purchased Abcam
Procedure: Two µg of each peptide was blotted (dot blot) directly on PDV nitrocellulose membrane and blocked with ROTI®Block (Carl Roth, Germany). After washing, the membrane was then incubated with 20 μg of recombinant Hsp90α (Abcam)/Lpl1-his protein at 4°C overnight. In case of interaction studies with Hsp90α, α-Hsp90α (produced in mouse, Abcam) was used as the primary antibody and for interaction studies with Lpl1-his, Anti-6X His tag antibody (also produced in mouse, Sigma-Aldrich, Germany) was used. Alkaline phosphatase conjugated goat-α-mouse IgG (Sigma-Aldrich, Germany) served as the secondary antibody. Detection was done using BCIP®/NBT solution (Sigma, Germany). Lpl1-his was isolated and purified as described in our previous paper (Tribelli et al. [2020]).

[1] = test system: F-actin levels in HaCaT cells; test: F-actin measurement (ActinGreen 488 fluorescence) in HaCaT cells; type: cell-based, human; settings: 35 µg/ml peptide (L15 20 µM, L13 30 µM), geldanamycin 5 µM; 1.5 h; ActinGreen 488 fluorescence relative to control
Procedure: About 5 × 10^4 cells were seeded in black flat bottom 96 well cell culture microplate (Greiner, Germany) and incubated overnight. The cells were then incubated with peptides or geldanamycin for 1.5 h. After incubation, the cells were washed, permeabilised with 0.1% (v/v) Triton X-100 and stained with ActinGreen™ 488 ReadyProbes® (Thermo Fischer, Germany) for 30 min. After the staining, the cells were washed and measure for its fluorescence at Excitation/Emission: 495/518 nm (Luqman et al. [2020]).

S. aureus Newman = test: Galleria mellonella larvae infection model, S. aureus Newman; type: in vivo; settings: peptides 60 mg/kg, vancomycin 20 mg/kg, injected 1 h before 10^6 cfu; 37°C
Procedure: Galleria mellonella larvae, purchased from Feeders & more GmbH, Germany, were sorted based on weight and used within one week. Ten larvae per group with weight average of 500 mg/larvae were injected with bacteria and/or peptides on its last proleg using a BD insulin syringe. The dosage used for the experiment were 60 mg/kg for peptides, 5 mg/kg of geldanamycin and 20 mg/kg for vancomycin. Each larva was injected with 10 µl of L15 (last left proleg) 1 h before administration of 10^6 cfu S. aureus (last right proleg). The larvae were maintained at 37°C and observed for mortality every day over the course of 5 days.

[2] = test system: phagocytosis by primary human CD14+ monocytes; test: Phagocytosis of S. aureus USA300 by CD14+ monocytes; type: cell-based; settings: L15 20 µM, L13 30 µM, geldanamycin 5 µM, 60 min preincubation; MOI 30, 90 min; n = 4 donors; SEM
Procedure: Peripheral Blood Mononuclear cells (PBMCs) were isolated by density gradient centrifugation following the previous study (Nguyen et al. [2022]). From the pool of PBMCs, monocytes were isolated by positive selection with anti-human CD14 microbeads (Miltenyi Biotech, Bergisch-Gladbach, Germany) following a previously reported protocol (Nguyen et al. [2022]). The purity was analysed by flow cytometry on a BD Accuri C6 (BD Biosciences, Heidelberg, Germany) with anti-human CD14-FITC, CD45-PE and propidium iodide (BD Biosciences, Heidelberg, Germany) and ranged from 85% to 98%.
For the phagocytosis, 10^6 CD14^+ monocytes were seeded in 1 ml of medium (RPMI supplemented with L-Glutamine and 10% FCS) in a 12 well plate (Greiner, Germany). The cells were incubated with 20 µM of L15, 30 µM of L13, or 5 µM of Geldanamycin for 60 min at 37°C and 5% CO2 before addition of bacteria. For the phagocytosis assay, bacterial cells were resuspended in 100 µl RPMI medium at MOI of 30 and incubated with monocytes for 90 min. The cells were washed once with PBS and 0.5 ml of medium supplemented with 2.5 µg/ml of Lysostaphin was added for 90 min to remove the extracellular bacteria. Then, monocytes were washed twice with PBS and resuspended in 0.5 ml of milliQ dH2O. The cells were scraped, and the lysed solution was transferred into a new 1.5 ml Eppendorf tube for a 5 min sonication (frequency 80, power 100) at room temperature to prevent the bacterial cell clumping by using ultrasonic water bath Elmasonic P (Elma Schmidbauer Gmb, Singen, Germany). About 10 µl fractions of undiluted, 10^−1, 10^−2, and 10^−3 dilutions were inoculated on tryptic soy agar (TSA) plates and incubated overnight at 37°C. The numbers of internalized bacteria were determined based on the manual counting of bacterial colony forming units (cfu) recovered on the agar plates.

Staphylococcus aureus = test: Hemolysin activity on sheep blood agar; type: cell-based; settings: impregnated discs on sheep blood agar, 37°C overnight
Procedure: About 6 mm Whatman empty Antibiotic Assay Discs were impregnated with L15 or L13 and allowed to dry. Once dried, the discs were placed on sheep blood agar plates, inoculated with S. aureus and incubated at 37°C overnight. The halo obtained was measured and compared.

[3] = test system: S. aureus USA300 invasion into N/TERT-1 cells; test: S. aureus USA300 invasion into N/TERT-1 keratinocytes; type: cell-based, human; settings: pretreatment with L15 20 µM, L13 30 µM, geldanamycin 5 µM or α-Hsp90α antibody
Procedure: The invasion protocol was adapted from our previous papers (Nguyen et al. [2015], Tribelli et al. [2020]). About 5 × 10^5 Keratinocytes were seeded in a 24 well plate (Greiner, Frickenhausen, Germany) to attain a monolayer of ∼10^6 cells/well. Staphylococcusaureus was grown overnight at 37°C, centrifuged and suspended in invasion medium (DMEM with 10% FBS for HaCaT and K-SFM for NTERT-1 cells). The adherent keratinocytes were washed with PBS and supplemented with invasion medium followed by treatment with 20 µM of L15, 30 µM of L13, or 5 µM geldanamycin (Sigma-Aldrich, Germany) or monoclonal antibodies specific against Hsp90α (α‐Hsp90α, Abcam) for 1 h. After 1 h, 100 µl of bacterial suspension was added to each well to attain a MOI (multiplicity of infection) of 30 and incubated with cells for 1.5 h. Subsequently, the extracellular bacteria were killed with treatment of 2.5 μg/ml lysostaphin (Sigma-Aldrich, Germany) for 1.5 h. The cells were then washed, lysed, mechanically detached by scraping, diluted, and enumerated on TSA (Tryptic Soy Agar) plates to quantify the intracellular bacteria.

Sequence | Interaction with Hsp90α (Hsp90α) | Relative F-actin level in HaCaT [1] | larvae surviving on day 5, S. aureus Newman (S. aureus Newman) | decrease of phagocytosis of S. aureus into CD14+ monocytes [2] | effect on hemolysis activity of S. aureus (Staphylococcus aureus) | invasion of S. aureus USA300 into N/TERT-1 cells [3]
GHYFVTTFY [L13] | Yes | 0.87 ± 0.03 | 46% | about 62.0 ± 6.80% | nor was hemolysis activity markedly affected | inhibits the invasion
TAKGHYFVTTFYRNG [L15] | Yes | 0.83 ± 0.04 | 36% | about 22.6 ± 7.67% | nor was hemolysis activity markedly affected | inhibits the invasion
